Measured values as given in patent publication US20070082939A1, “Methods and compositions for the treatment of neuropathies and related disorders” (priority 2005, published 2007).
“Also recorded” adds a separate entry of the source. Counter-ions that a name gives are not always drawn.

What was measured:
[1] = test system: acute inflammatory pain produced by injection of yeast extract into the rat paw; conditions: cited from earlier work
[2] = test system: spinal nerve ligation (Chung) model of neuropathic pain; assay: Spinal nerve ligation (Chung) model, thermal stimulation (infrared radiant source); type: in vivo, rats; conditions: for thermal hyperalgesia: paw withdrawal latency, lesioned paw / response to application of heat in the non-lesioned paw: rats; for thermal hyperalgesia: paw withdrawal latency, lesioned paw: p.o. at the indicated doses 60 minutes before the test; for response to application of heat in the non-lesioned paw: p.o., non-lesioned paw (Panel B); for thermal hyperalgesia: paw withdrawal latency, lesioned paw / effect on thermal hyperalgesia compared with morphine: lesioned paw; for effect on thermal hyperalgesia compared with morphine: morphine 128 mg/kg PO, nearly lethal dose
Experimental: (§1) Tight ligature of spinal nerves in rats is associated with hyperalgesia, allodynia and spontaneous pain, and thereby provides an accepted model for peripheral neuropathic pain in humans. Male Sprague-Dawley rats Rj:SD (IOPS Han) weighing 218-260 g at the beginning of the procedure were anesthetized (sodium pentobarbital 40 mg/kg i.p.) and an incision at the L4-S2 level was performed to expose the left L5 and L6 spinal nerves, which were then tightly ligated (4-0 silk suture) distal to the dorsal root ganglion and prior to entrance into the sciatic nerve, as first described by Kim and Chung (Pain 50:355-363, 1992). The wound was then sutured, and the rats received an […]. injection of clamoxyl (100 mg/kg […].) and were allowed to recover. 4 weeks after surgery, when the chronic pain state was fully installed, rats were submitted consecutively to tactile and thermal stimulation of both the non-lesioned and the lesioned hindpaws.
For thermal stimulation, the apparatus (Model 7200, Ugo Basile, Italy) consists of individual acrylic plastic boxes (17×11×13 cm) placed upon an elevated glass floor. A rat was placed in the box and left free to habituate for 10 minutes. A mobile infrared radiant source (96±10 mW/cm^2) was then focused under the non-lesioned and lesioned hindpaws and the paw-withdrawal latency was automatically recorded. In order to prevent tissue damage the heat source was automatically turned off after 45 seconds.
(§2) Behavioral testing was carried out 2 weeks after surgery. Prior to receiving drug treatment all animals were submitted to tactile stimulation and assigned to treatment groups matched on the basis of their pain response. 8 rats were studied per group, and the tests were performed blind.
(§3) Bicifadine was evaluated at the indicated doses, administered p.o. 60 minutes before the test, and compared with a vehicle control group. Morphine (128 mg/kg p.o.), used as a reference substance, was administered under the same experimental conditions.
(§4) Data were analyzed by comparing the responses of lesioned paws in the treatment groups with vehicle control group using paired and unpaired Student's t tests.
(§5) In the instant example, another exemplary, substituted 1-aryl-3-azabicyclo[3.1.0]hexane was evaluated for its ability to alleviate symptoms associated with neuropathy in the spinal nerve ligation (Chung) model of neuropathic pain. In this study, a multiply aryl-subsituted compound as described above, 1-(3,4-dichlorophenyl)-3-azabicyclo[3.1.0]hexane was assayed according to the procedures described above in Example 1. The 1-(3,4-dichlorophenyl)-3-azabicyclo[3.1.0]hexane was administered to test animals at the indicated doses p.o. 60 minutes before the test, and compared with a vehicle control group. Data were analyzed by comparing the responses of lesioned paws in the treatment groups with vehicle control group using paired and unpaired Student's t tests, as described in Example 1.

[3] = test system: spinal nerve ligation (Chung) model of neuropathic pain; assay: Spinal nerve ligation (Chung) model, tactile stimulation with electronic Von Frey probe; type: in vivo, rats; conditions: for mechanical hyperalgesia: force required to induce paw withdrawal, lesioned paw / pain (pressure) threshold in the non-lesioned paw: rats; for mechanical hyperalgesia: force required to induce paw withdrawal, lesioned paw: p.o. at the indicated doses 60 minutes before the test; for pain (pressure) threshold in the non-lesioned paw: p.o., non-lesioned paw (Panel B); for mechanical hyperalgesia: force required to induce paw withdrawal, lesioned paw / effect on mechanical hyperalgesia compared with morphine: lesioned paw; for effect on mechanical hyperalgesia compared with morphine: morphine 128 mg/kg p.o., near lethal dose
Experimental: as §1
For tactile stimulation, the animal was placed under an inverted acrylic plastic box (18×11.5×13 cm) on a grid floor. The tip of an electronic Von Frey probe (Bioseb, model 1610) was then applied with increasing force to the non-lesioned and lesioned hindpaws and the force inducing paw-withdrawal was automatically recorded. This procedure was carried out 3 times and the mean force per paw was calculated.
as §2, §3, §4, §5

[4] = test system: Streptozotocin (STZ)-induced diabetes rat model of neuropathy; assay: Streptozotocin (STZ)-induced diabetes rat model, paw pressure test; type: in vivo, rats; conditions: 60 minutes after dosing; for mechanical hyperalgesia: nociceptive threshold (paw pressure): STZ diabetic rats, oral, vs vehicle-treated diabetic rats, hydrochloride
Experimental: Male Sprague Dawley rats Rj:SD (IOPS Han) weighing 218-260 g at the beginning of the experiment, were included in this study for the induction of diabetes. These were divided into vehicle control and streptozotocin treated groups. The rats were housed in a temperature (19.5-24.5° C.) and relative humidity (45-65%) controlled room with a 12-h light/dark cycle, with ad libitum access to filtered tap water and standard pelleted laboratory chow throughout the study.
On day 0, diabetes was induced by intraperitoneal injection of streptozotocin (STZ; 75 mg/kg) to the rats. On day 23, to confirm the presence of diabetes in the STZ-administered rats, hyperglycemia was measured using blood glucose strips. Animals with a blood sugar level lower than […] were not used in further investigations.
Animals found useful for inclusion in additional investigations were dosed orally with bicifadine at the indicated doses, and the nociceptive threshold tested sixty minutes later. The nociceptive threshold was evaluated using a mechanical nociceptive stimulus (paw pressure test). An increasing pressure was applied onto the hindpaw of the animal until the nociceptive response (vocalization or paw withdrawal) was reached. The pain threshold (grams of contact pressure) was measured in both hindpaws.
Results are expressed as the nociceptive threshold (mean±SEM) in grams of contact pressure for each group, calculated from individual nociceptive thresholds (mean values of the nociceptive thresholds obtained for both hindpaws). Statistical significance between the bicifadine treated groups and the vehicle-treated diabetic group was determined by a […], using the residual variance after a one-way analysis of variance (P<0.05).

[5] = test system: nociceptive pain following dental surgery; conditions: humans; cited from earlier work
[6] = morphine 128 mg/kg p.o. (nearly lethal dose), vs vehicle
[7] = listed as Bicfifadine, hydrochloride
[8] = vs vehicle, listed as bicifadine HCl, hydrochloride

Structure (SMILES): COc1ccc2c3c1O[C@H]1[C@@H](O)C=C[C@H]4[C@@H](C2)N(C)CC[C@@]341 [codeine]
- activity in the Randall-Selitto test [1]: active

Structure (SMILES): CC(=O)Oc1ccccc1C(=O)O [aspirin]
- activity in the Randall-Selitto test [1]: active

Structure (SMILES): CN1CC[C@]23c4c5ccc(O)c4O[C@H]2[C@@H](O)C=C[C@H]3[C@H]1C5 [morphine, reference compound]
- threshold for nociceptive response, thermal stimulus, lesioned paw [2, 6]: significant increase
- activity in the Randall-Selitto test [1]: active
- threshold for nociceptive response, mechanical pressure, lesioned paw [3, 6]: significant increase

Structure (SMILES): Clc1ccc(C23CNCC2C3)cc1Cl (centres unmarked) [1-(3,4-dichlorophenyl)-3-azabicyclo[3.1.0]hexane]
- thermal hyperalgesia: paw withdrawal latency, lesioned paw ([2]; vs vehicle): dose-dependently suppressed thermal hyperalgesia; also recorded: significant increase in paw withdrawal latency; also recorded: suppresses thermal hyperalgesia
- response to application of heat in the non-lesioned paw [2]: not due to debilitation of the animal; also recorded: no effect
- mechanical hyperalgesia: force required to induce paw withdrawal, lesioned paw ([3]; vs vehicle): potently suppressed tactile allodynia; also recorded: significant increase in the force required to induce paw withdrawal; also recorded: suppresses mechanical hyperalgesia
- pain (pressure) threshold in the non-lesioned paw [3]: not due to debilitation of the animal; also recorded: no effect

Structure (SMILES): Cc1ccc([C@]23CNC[C@H]2C3)cc1 (racemic) [bicifadine, (±)-1-(4-methylphenyl)-3-azabicyclo[3.1.0]hexane hydrochloride]
- nociceptive threshold (paw pressure) ([4]; 12.5 and 25 mg/kg oral, vs vehicle treated diabetic animals): significant (P<0.05) increase
- mechanical hyperalgesia: nociceptive threshold (paw pressure) [4]: reduces mechanical hyperalgesia; also recorded: effectively alleviates neuropathy symptoms (mechanical hyperalgesia)
- mechanical hyperalgesia: nociceptive threshold (paw pressure) ([4]; listed as Bicifadine): increased the amount of pressure an animal could withstand; also recorded: restore the amount of pressure tolerated in these diabetic rats to values approaching those obtained in control animals
- paw withdrawal latency in response to a thermal stimulus, lesioned paw ([2]; all doses tested (12.5-100 mg/kg PO), vs vehicle): significant increase
- effect on thermal hyperalgesia compared with morphine ([2]; hydrochloride): approximately equivalent
- effect on thermal hyperalgesia compared with morphine [2, 7]: as effective as a near lethal dose morphine
- thermal hyperalgesia: paw withdrawal latency, lesioned paw ([2]; vs vehicle, hydrochloride): effectively suppressed
- thermal hyperalgesia: paw withdrawal latency, lesioned paw [2, 8]: suppresses thermal hyperalgesia
- response to application of heat in the non-lesioned paw ([2]; hydrochloride): does not affect; also recorded: no effect
- activity in the Randall-Selitto test [1]: potent and active
- force required to induce paw withdrawal, lesioned paw ([3]; 50 mg/kg PO, 60 minutes before the test, vs vehicle treated lesioned paws): significant increase
- effect on mechanical hyperalgesia compared with morphine ([3]; hydrochloride): more potent than morphine
- effect on mechanical hyperalgesia compared with morphine [3, 7]: as effective as a near lethal dose morphine
- mechanical hyperalgesia: force required to induce paw withdrawal, lesioned paw ([3]; vs vehicle, hydrochloride): statistically significant increase; also recorded: effectively suppressed
- mechanical hyperalgesia: force required to induce paw withdrawal, lesioned paw [3, 8]: suppresses mechanical hyperalgesia
- pain (pressure) threshold in the non-lesioned paw ([3]; hydrochloride): does not affect; also recorded: no effect
- relief of pain following dental surgery compared with codeine and tramadol [5]: as effective as codeine and tramadol
